This is an account of results in patent US5470866A, “Method for the conversion of cephalomannine to taxol and for the preparation of n-acyl analogs of taxol” (Virginia Polytechnic Institute and State University, priority 1994, dated 1995).

For experiment [1] the following is noted: in some assays; reported in literature; cited from earlier work.
Experiment [2] concerns P-388 lymphocytic leukemia cells. Nature of the experiment: cell culture assay using P-388 lymphocytic leukemia cells (cytotoxicity of N-debenzoyl-N-acyltaxols). Format: cell-based. The note with it: Mus musculus, P388; P-388 cell culture; taxol reference; read-out: Absolute ED50. The protocol: For details of the cell culture assay, see Abbott, B. J., "Protocol 14 of Instruction 275," National Cancer Institute, National Institutes Of Health, Jan. 24, 1978. N-acyltaxol analogs are important analogs of taxol for anticancer treatment. The present invention provides a simple way of preparing such analogs from taxol or cephalomannine without removing the C-13 side-chain.
*Cytotoxicity is recorded as ED50 value relative to taxol determined
in the same assay. Absolute ED50 of taxol is approximately 0.03

In brackets after ≈: the same amount, converted by molar mass.

Take `CC(=O)O[C@@]12CO[C@@H]1C[C@H](O)[C@@]1(C)C(=O)[C@H](O)C3=C(C)[C@@H](OC(=O)[C@H](O)[C@@H](NC(=O)OC(C)(C)C)c4ccccc4)C[C@@](O)([C@@H](OC(=O)c4ccccc4)[C@H]21)C3(C)C` [taxotere]: the “activity relative to taxol” value in experiment [1] was “approximately twice as active as taxol”.
As to `CC(=O)O[C@H]1C(=O)[C@@]2(C)[C@H]([C@H](OC(=O)c3ccccc3)[C@]3(O)C[C@H](OC(=O)[C@H](O)[C@@H](NC(=O)c4ccccc4)c4ccccc4)C(C)=C1C3(C)C)[C@]1(OC(C)=O)CO[C@@H]1C[C@@H]2O` [taxol], the IC50 in experiment [2] is roughly 0.03 µg/mL (≈ 0.0351 µM).
